Reference: patent US20050255084A1, “Use of a half-transporter protein of the abcg-family for selecting cells and in gene therapy” (SOLVO BIOTECHNOLOGY, priority 2001, published 2005)
In brackets after ≈: the same amount, converted by molar mass.

Columns and labels:
[1] = Cytotoxicity assay (cell survival after 4 days), vector control; assay type: cell-based; conditions: human, mock-transduced (vector control) PLB985 cells
Method: (§1) Panel C: Cytotoxicity assay (cell survival after 4 days) of PLB985 cells expressing the ABCG2 variants. • ∘: Control, mock-transduced PLB985s; • Δ: PLB985s expressing ABCG2-R, selected by 10 nM MX; • ◯: PLB985s expressing ABCG2-G, selected by 100 nM MX.
(§2) This assay was performed in 24-well plates, cells seeded at a density of 200,000 cells/well. Cytotoxic drugs were added at the concentrations indicated and the cells were cultured for 4 days at 37° C. Total and live cell numbers were determined by flow cytometry after the addition of 2 μg/ml propidium-iodide, to identify dead cells.

[2] = system: ABCG2-R (wild-type ABCG2); experiment: Cytotoxicity assay (cell survival after 4 days), wild-type ABCG2; assay type: cell-based; conditions: human, PLB985 cells expressing ABCG2-R (wild-type ABCG2), selected by 10 nM MX
Method: as §1, §2

ABCG2-G (R482G ABCG2) = experiment: Cytotoxicity assay (cell survival after 4 days), R482G ABCG2; assay type: cell-based; conditions: human, PLB985 cells expressing ABCG2-G (R482G ABCG2), selected by 100 nM MX
Method: as §1, §2

[3] = system: mock-transduced PLB985 X-CGD cells; experiment: Mitoxantrone uptake assay, mock-transduced cells; assay type: cell-based, human; conditions: 10 μM FTC, 5 μM MX
Method: Cells were suspended in phenol red-free Hank's balanced salt solution, with additional pH stabilization by 20 mM phosphate buffer. Aliquots of the suspension, containing 3×10^5 cells, were incubated with or without the addition of 5 μM MX, and also with 5 μM MX+10 μM FTC, a specific inhibitor of ABCG2 (Rabindran et al., 2000; van Loevezijn et al., 2001). After one hour incubation at 37° C., the cells were washed with ice-cold medium, resuspended in ice-cold medium containing 21 g/ml propidium-iodide, and stored on ice until analysis by flow cytometry. Cellular MX values were determined at 635 nm excitation/661 nm emission wavelengths.

ABCG2-G [4] = target: T1, ABCG2-G (Homo sapiens, UniProt Q9UNQ0, R482G); conditions: 10 μM FTC, 5 μM MX; transduced cells pre-selected with 10 nM MX
Method: (§3) Functional detection of ABCG2 expression was evaluated with a modified MX uptake assay of Robey et al. (Robey et al., 2001). Cells were suspended in phenol red-free Hank's balanced salt solution, with additional pH stabilization by 20 mM phosphate buffer. Aliquots of the suspension, containing 3×10^5 cells, were incubated with or without the addition of 5 μM MX, and also with 5 μM MX+10 μM FTC, a specific inhibitor of ABCG2 (Rabindran et al., 2000; van Loevezijn et al., 2001). After one hour incubation at 37° C., the cells were washed with ice-cold medium, resuspended in ice-cold medium containing 21 µg/ml propidium-iodide, and stored on ice until analysis by flow cytometry. Cellular MX values were determined at 635 nm excitation/661 nm emission wavelengths.

ABCG2-G [5] = target: T1, ABCG2-G; conditions: 10 μM FTC, 5 μM MX; ABCG2-G cells selected by 100 nM MX
Method: (§4) Panel B: Flow cytometry detection of mitoxantrone uptake (dotted lines: autofluorescence, solid thick lines: MX fluorescence, solid thin lines: MX fluorescence in the presence of the ABCG2-inhibitor, FTC). Part 1: Mock-transduced PLB985s; Part 2: PLB985s expressing ABCG2-R, selected by 10 nM MX; Part 3: PLB985s expressing ABCG2-G, selected by 100 nM MX.
as §3

ABCG2-R = ABCG2-R (Homo sapiens, UniProt Q9UNQ0); conditions: 10 μM FTC, 5 μM MX; ABCG2-R cells selected by 10 nM MX
Method: as §4, §3

[6] = system: transduced PLB985 X-CGD cells; experiment: Flow cytometry of gp91phox expression after drug selection; assay type: cell-based, human; conditions: 10 nM MX selection for four days; 40-48% before selection
Method: (§5) Transduced PLB985 cells were selected by stepwise increases in mitoxantrone or doxorubicin (DOX; other name: adriamycin) concentrations. Selection was started 5 days (in some cases: 7 days) after transduction; each drug concentration was applied for four days (in early experiments: 8 days). CD34+ cells were selected similarly but were first selected on day two after transduction.
(§6) Gp91^phox expression was measured by flow cytometry (Becton Dickinson FACS Calibur) by using the 7D5 antibody (provided by M. Nakamura (Nakamura et al., 1987) and phycoerythrin-labeled anti-mouse secondary antibody (GAM-PE, 250 times dilution, Sigma).

[7] = system: human cord blood CD34+ cells; experiment: Suspension culture granulocyte differentiation with MX selection; assay type: cell-based; conditions: 5 nM MX selection
Text: as §5
Cell differentiation was induced by 0.5% dimethyl-formamide (DMF) in order to obtain granulocytes. In order to follow granulocyte differentiation, cells were labelled with monoclonal anti-CD11b/RPE antibody (Dako, Denmark), and staining was determined by flow cytometry. For the induction of differentiation in the case of normal CD34+ cells, both liquid suspension cultures and clonogenic progenitor assays were used. For suspension culture, fresh media, containing cytokines +G-CSF (50 ng/ml) were added to the cells 24 hours after transduction, and then the cells were incubated for 12-14 days at 37° C.

[8] = system: human cord blood CD34+ cells; experiment: Colony-forming cell assay; assay type: cell-based; conditions: 5 nM MX
Method: In the colony-forming cell assay the cells were plated at a concentration of 250 cells/ml and 1250 cells/ml in Iscove's medium, containing 0.9% methylcellulose, 30% FCS, 1% bovine serum albumin, 1.4×10^−5M dithiothreitol, 5 ng/ml human recombinant IL-3, 25 ng/ml SCF, 10 ng/ml GM-CSF, 2 ng/ml G-CSF and 2U/ml erythropoietin, in the presence or absence of 5 nM mitoxantrone. After 14 days of incubation at 37° C., the colony forming cells were counted.

[9] = system: mouse X-CGD KO -/- bone marrow cells; experiment: Cytotoxicity assay on mouse bone marrow cells; assay type: cell-based
Method: FIG. 8. Panel A Cytotoxicity assay (cell survival after four days) on transduced mouse X-CGD KO −/− bone marrow cells • ♦Control, non transduced cells • ▪Cells tranduced by SPsAGS vector carrying cDNA of ABCG2-G, unselected, • ▴Cells tranduced by SPsATS vector carrying cDNA of ABCG2-T, unselected.
as §2
(§7) Drug selection of the transduced cells, cytotoxic assay, immunodetection of gp91^phox, nitroblue tetrazolium test (NBT) were performed similar as in human CD34+ cells except using murine cytokines. In the colony assay 10 000 cells were plated in semisolid medium containing 0, 5 and 10 nM MX.

[10] = system: mouse X-CGD KO -/- bone marrow cells; experiment: Flow cytometry of gp91phox expression in selected mouse bone marrow cells; assay type: cell-based; conditions: 5 days selection on 5 nM or 10 nM MX; SPsAGS transduced BM cells
Method: as §6, §7

[11] = system: mouse X-CGD KO -/- bone marrow cells; experiment: Colony assay from mouse bone marrow cells; assay type: cell-based; conditions: 5 nM or 10 nM MX in semisolid medium
Method: In the colony assay 10 000 cells were plated in semisolid medium containing 0, 5 and 10 nM MX.

T1 sequence (Q9UNQ0 whole entry R482G): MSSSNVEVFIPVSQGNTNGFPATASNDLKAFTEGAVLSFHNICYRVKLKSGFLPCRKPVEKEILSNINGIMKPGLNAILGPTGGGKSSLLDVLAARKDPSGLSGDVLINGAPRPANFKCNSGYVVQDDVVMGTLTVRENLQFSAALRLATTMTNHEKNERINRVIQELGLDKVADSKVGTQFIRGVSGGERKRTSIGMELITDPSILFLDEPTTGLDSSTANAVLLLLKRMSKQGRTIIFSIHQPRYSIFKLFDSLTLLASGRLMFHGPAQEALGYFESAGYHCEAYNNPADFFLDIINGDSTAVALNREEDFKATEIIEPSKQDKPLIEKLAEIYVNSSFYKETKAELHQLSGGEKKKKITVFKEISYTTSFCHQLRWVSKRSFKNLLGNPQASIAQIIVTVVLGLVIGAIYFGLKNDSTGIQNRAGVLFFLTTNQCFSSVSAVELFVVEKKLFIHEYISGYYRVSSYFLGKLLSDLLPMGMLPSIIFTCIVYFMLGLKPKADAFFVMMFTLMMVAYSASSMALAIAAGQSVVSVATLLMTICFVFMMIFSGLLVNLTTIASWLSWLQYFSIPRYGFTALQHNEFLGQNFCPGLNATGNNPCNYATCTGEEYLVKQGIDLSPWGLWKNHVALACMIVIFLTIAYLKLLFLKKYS
ABCG2-R, sequence (Q9UNQ0 whole entry): as the sequence (Q9UNQ0 whole entry R482G) above, with G482R counted along it

Row | SMILES | IC50 at 4 days [1] [µg/mL] | IC50 at 4 days [2] [µg/mL] | IC50 at 4 days (ABCG2-G (R482G ABCG2)) [µg/mL] | effect on MX uptake [3] | sensitivity of MX uptake to the inhibitor (ABCG2-G [4]) | reversal of MX extrusion (ABCG2-G [5]) | reversal of MX extrusion (ABCG2-R) | ratio of gp91phox-expressing cells after selection [6] | level of CD15+ cells after selection ([7]; ABCG2-G transduced CD34+ cells) | fate of mock-transduced cells in suspension culture ([7]; mock-transduced CD34+ cells) | decrease of CFC number ([8]; ABCG2-G transduced CD34+ cells) | colony formation ([8]; mock-transduced CD34+ cells) | survival of cells ([9]; 5 nM or more mitoxantron, non-transduced control BM cells) | transduced cells resistant to MX (surviving cells) ([9]; 5 or 10 nM mitoxantron, SPsAGS or SPsATS transduced, unselected BM cells) | gp91phox-positive cells after selection [10] [%] | colony formation ([11]; ABCG2-G transduced BM cells) | decrease of CFC number ([11]; ABCG2-T transduced BM cells) | colony formation ([11]; non-transduced BM cells)
1 | COc1cccc2c1C(=O)c1c(O)c3c(c(O)c1C2=O)C[C@@](O)(C(=O)CO)C[C@@H]3O[C@H]1C[C@H](N)[C@H](O)[C@H](C)O1 [ADR, doxorubicin] | ~0.008 (≈ 0.0147 µM) | ~0.02 (≈ 0.0368 µM) | ~0.25 (≈ 0.46 µM) |  |  |  |  |  |  |  |  |  |  |  |  |  |  | 
2 | COc1ccc2c3c([nH]c2c1)[C@H](C=C(C)C)N1C(=O)[C@@H]2CCCN2C(=O)[C@@H]1C3 [FTC, Fumitremorgin C] |  |  |  | no effect | fully sensitive | fully reversible | fully reversible |  |  |  |  |  |  |  |  |  |  | 
3 | O=C1c2c(O)ccc(O)c2C(=O)c2c(NCCNCCO)ccc(NCCNCCO)c21 [MX, mitoxantrone] | ~0.01 (≈ 0.0225 µM) | 0.03 (≈ 0.0675 µM) | 0.075 (≈ 0.169 µM) |  |  |  |  | over 90% | unchanged level of CD15+ cells | eliminated | about 50% | did not form colonies | all non-transduced control cells died | 15-20% | > 80 | hardly formed any | about 80% | did not form colonies
